Experimental data from US9708336B2, “Metallo-beta-lactamase inhibitors” (priority 2014, dated 2017).
Read-outs that look alike come from different tables or passages of the source.

Legend:
[1] = target: VIM-1 (Pseudomonas aeruginosa (strain ATCC 15692 / DSM 22644 / CIP 104116 / JCM 14847 / LMG 12228 / 1C / PRS 101 / PAO1), UniProt A0A0F7KYQ8); assay: Enzyme activity: determination of IC50, fluorescence assay with CCF2-FA substrate (VIM-1); assay type: biochemical; conditions: CCF2-FA substrate
Experimental: Enzyme Activity: Determination of IC50
(§2) The Class B enzyme activities were measured in the presence of the test inhibitor in a fluorescence assay against a commercially available substrate consisting of a cephalosporin core linking 7-hydroxycoumarin to fluorescein (CCF2-FA). The enzyme (NDM-1, IMP-1 or VIM-1) and the substrate were diluted in 100 mM KH2PO4 buffer (pH 7) containing 0.005% Tween-20 and 10 μM ZnSO4. […] The test inhibitor was dissolved in dimethylsulfoxide and diluted 1:50 in the assay, resulting in a final concentration range of 20 uM to 0.00063 uM. In a 384-well microplate, the test inhibitor was incubated with the metallo-β-lactamase enzyme and the substrate for 2 hours at 25° C. Fluorescence at 460 nm following excitation at 405 nm was measured. The IC50 value was determined from semi-logarithmic plots of enzyme inhibition versus inhibitor concentration, with a curve generated using a 4-parameter fit.

[2] = target: IMP-1 (Serratia marcescens, UniProt P52699); assay: biochemical; assay type: biochemical; conditions: IMP-1 enzyme, CCF2-FA substrate; read-out: IMP-1 IC50
Sequence of IMP-1 (P52699 whole entry, looked up): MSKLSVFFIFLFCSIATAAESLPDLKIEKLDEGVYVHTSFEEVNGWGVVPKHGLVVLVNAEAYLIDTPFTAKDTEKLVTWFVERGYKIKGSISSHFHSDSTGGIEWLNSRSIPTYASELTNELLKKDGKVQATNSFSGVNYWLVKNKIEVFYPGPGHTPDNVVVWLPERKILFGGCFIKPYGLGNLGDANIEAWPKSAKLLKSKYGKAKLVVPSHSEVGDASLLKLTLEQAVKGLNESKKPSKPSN
Experimental: Enzyme Activity: Determination of IC50
as §2

[3] = target: NDM-1 (Klebsiella pneumoniae, UniProt C7C422); assay: biochemical; assay type: biochemical; conditions: NDM-1 enzyme, CCF2-FA substrate; read-out: NDM-1 IC50
Sequence of NDM-1 (C7C422 whole entry, looked up, species assumed): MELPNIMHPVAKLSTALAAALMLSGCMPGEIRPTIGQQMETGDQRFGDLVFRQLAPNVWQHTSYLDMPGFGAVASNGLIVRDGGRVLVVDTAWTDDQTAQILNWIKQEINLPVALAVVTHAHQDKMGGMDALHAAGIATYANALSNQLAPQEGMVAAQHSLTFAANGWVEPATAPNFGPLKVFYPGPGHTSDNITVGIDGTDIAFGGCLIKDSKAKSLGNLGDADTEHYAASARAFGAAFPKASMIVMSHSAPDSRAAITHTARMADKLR

[4] = test system: Klebsiella pneumoniae expressing VIM-1 (IHMA599644); assay: Antibiotic potentiation activity: synergistic concentration (MITC95) with imipenem, OD600 growth; assay type: cell-based; conditions: Klebsiella pneumoniae IHMA599644 (VIM-1), 95% growth inhibition
Procedure, shortened: (§1)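 Bacteria were grown overnight on agar at 35 °C, diluted 1:100 from saline into 1.1× CAMHB, then given compound with or without imipenem (4 μg/ml in assay, optionally 1 μg/ml). Endpoint: absorbance at 22–24 h.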

[5] = test system: Escherichia coli expressing NDM-1 (CLB30016); assay: as above; assay type: cell-based; conditions: (CLB30016, NDM-1), 95% growth inhibition
Procedure, shortened: as §1

[6] = test system: Serratia marcescens expressing IMP-1 (CL5741); assay: as above; assay type: cell-based; conditions: Serratia marcescens CL5741 (IMP-1), 95% growth inhibition
Procedure, shortened: as §1

[7] = VIM-1 enzyme, read-out: VIM-1 IC50

SMILES	IC50 ([1]; VIM-1 IC50, VIM-1 enzyme)	IC50 [2]	IC50 [3]	Klebsiella pneumoniae MITC95 [4]	Escherichia coli MITC95 [5]	Serratia marcescens MITC95 [6]	IC50 [1, 7]
NS(=O)(=O)c1cccc(-c2cnc3cnccn23)c1-c1nnn[nH]1 [Example 651, 3-imidazo[1,2-a]pyrazin-3-yl-2-(1H-tetrazol-5-yl)benzenesulfonamide]	40.7 nM	900 nM	9.85 nM	6.25 µM	1.172 µM	37.5 µM	
NS(=O)(=O)c1cccc(-c2cnc3ccc(Cl)nn23)c1-c1nnn[nH]1 [Example 652, 3-(6-chloroimidazo[1,2-b]pyridazin-3-yl)-2-(1H-tetrazol-5-yl)benzenesulfonamide]		167 nM	5.37 nM	25 µM	1.563 µM	12.5 µM	27.4 nM
CC1(O)CCN(c2ccc(C(F)(F)F)c(S(N)(=O)=O)c2-c2nnn[nH]2)CC1 [Example 653, 3-(4-hydroxy-4-methypiperidin-1-yl)-2-(1H-tetrazol-5-yl)-6-(trifluoromethyl)benzenesulfonamide]		4.82 nM	2.82 nM	6.25 µM	1.563 µM	0.3906 µM	4.5 nM
CC1(O)CCCN(c2ccc(C(F)(F)F)c(S(N)(=O)=O)c2-c2nnn[nH]2)C1 (stereo not drawn) [Example 654, 3-(3-hydroxy-3-methylpiperidin-1-yl)-2-(1H-tetrazol-5-yl)-6-(trifluoromethyl)benzenesulfonamide]		19.6 nM	6.85 nM	9.375 µM	4.688 µM	1.172 µM	1.23 nM
Cc1n[nH]c2c1CN(c1ccc(C(F)(F)F)c(S(N)(=O)=O)c1-c1nnn[nH]1)CC2 [Example 655]		7.8 nM	0.985 nM	9.375 µM	2.344 µM	0.5859 µM	0.225 nM
NC(=O)C1CCN(c2ccc(C(F)(F)F)c(S(N)(=O)=O)c2-c2nnn[nH]2)CC1 [Example 656, 1-[3-sulfamoyl-2-(1H-tetrazol-5-yl)-4-(trifluoromethyl)phenyl]piperidine-4-carboxamide]		2.84 nM	1.98 nM	3.125 µM	0.5781 µM	0.125 µM	0.8 nM
NS(=O)(=O)c1c(C(F)(F)F)ccc(N2CCC[C@H](O)C2)c1-c1nnn[nH]1 [Example 657, 3-[(3S)-3-hydroxypiperidin-1-yl]-2-(1H-tetrazol-5-yl)-6-(trifluoromethyl)benzenesulfonamide]		10.2 nM	9.66 nM	4.688 µM	2.344 µM	0.7813 µM	2.09 nM
NS(=O)(=O)c1c(C(F)(F)F)ccc(N2CC3C(CO)C3C2)c1-c1nnn[nH]1 (stereo not drawn) [Example 658, 3-[6-(hydroxymethyl)-3-azabicyclo[3.1.0]hex-3-yl]-2-(1H-tetrazol-5-yl)-6-(trifluoromethyl)benzenesulfonamide]		7 nM	5.12 nM	12.5 µM	2.344 µM	0.7813 µM	5.26 nM
NS(=O)(=O)c1c(C(F)(F)F)ccc(N2CCCC(CO)C2)c1-c1nnn[nH]1 (stereo not drawn) [Example 659, 3-[3-(hydroxymethyl)piperidin-1-yl]-2-(1H-tetrazol-5-yl)-6-(trifluoromethyl)benzenesulfonamide]		36.3 nM	18.8 nM	25 µM	15.63 µM	2.344 µM	6.4 nM
NS(=O)(=O)c1c(C(F)(F)F)ccc(N2CCCC(CCO)C2)c1-c1nnn[nH]1 (stereo not drawn) [Example 660, 3-[3-(2-hydroxyethyl)piperidin-1-yl]-2-(1H-tetrazol-5-yl)-6-(trifluoromethyl)benzenesulfonamide]		10.4 nM	4.7 nM	6.25 µM	2.344 µM	0.3906 µM	1.31 nM
NS(=O)(=O)c1c(C(F)(F)F)ccc(N2CCC(CCO)CC2)c1-c1nnn[nH]1 [Example 661, 3-[4-(2-hydroxyethyl)piperidin-1-yl]-2-(1H-tetrazol-5-yl)-6-(trifluoromethyl)benzenesulfonamide]		0.965 nM	1.01 nM	2.75 µM	2.703 µM	0.0625 µM	0.22 nM
NC(=O)C1CCCN(c2ccc(C(F)(F)F)c(S(N)(=O)=O)c2-c2nnn[nH]2)C1 (stereo not drawn) [Example 662, 1-[3-sulfamoyl-2-(1H-tetrazol-5-yl)-4-(trifluoromethyl)phenyl]piperidine-3-carboxamide]		37.1 nM	11.6 nM	12.5 µM	6.25 µM	1.953 µM	4.58 nM
NS(=O)(=O)c1c(C(F)(F)F)ccc(N2CC[C@H](CO)[C@H](F)C2)c1-c1nnn[nH]1 [Example 663, 3-[(3S,4R)-3-fluoro-4-(hydroxymethyl)piperidin-1-yl]-2-(1H-tetrazol-5-yl)-6-(trifluoromethyl)benzenesulfonamide]		2.94 nM	2.46 nM	3.125 µM	0.8906 µM	0.125 µM	0.79 nM
NS(=O)(=O)c1c(C(F)(F)F)ccc(N2CCN(CCCO)CC2)c1-c1nnn[nH]1 [Example 664, 3-[4-(3-hydroxypropyl)piperazin-1-yl]-2-(1H-tetrazol-5-yl)-6-(trifluoromethyl)benzenesulfonamide]		38.5 nM	18.1 nM	6.25 µM	0.25 µM	0.418 µM	52 nM
NS(=O)(=O)c1c(C(F)(F)F)ccc(N2CCC[C@@H](O)C2)c1-c1nnn[nH]1 [Example 665, 3-[(3R)-3-hydroxypiperidin-1-yl]-2-(1H-tetrazol-5-yl)-6-(trifluoromethyl)benzenesulfonamide]		29.8 nM	7.48 nM	4.688 µM	1.563 µM	1.172 µM	0.999 nM
NS(=O)(=O)c1c(C(F)(F)F)ccc(N2C[C@H](O)C[C@@H](O)C2)c1-c1nnn[nH]1 [Example 666, 3-[(3R,5R)-3,5-dihydroxypiperidin-1-yl]-2-(1H-tetrazol-5-yl)-6-(trifluoromethyl)benzenesulfonamide]		150 nM	57 nM	12.5 µM	2.344 µM	4.688 µM	14.7 nM
NS(=O)(=O)c1c(C(F)(F)F)ccc(-c2ccc(C3CCN(CC4CCNCC4)CC3)cc2)c1-c1nnn[nH]1 [Example 668, 4′-[1-(piperidin-4-ylmethyl)piperidin-4-yl]-2-(1H-tetrazol-5-yl)-4-(trifluoromethyl)biphenyl-3-sulfonamide]		2.8 nM	9.32 nM	50 µM	1.563 µM	3.125 µM	7.04 nM
NS(=O)(=O)c1c(C(F)(F)F)ccc(-c2ccc(C3CCN(C[C@@H]4CCCN4)CC3)cc2)c1-c1nnn[nH]1 [Example 669, 4′-{1-[(2S)-pyrrolidin-2-ylmethyl]piperidin-4-yl}-2-(1H-tetrazol-5-yl)-4-(trifluoromethyl)biphenyl-3-sulfonamide]	8.99 nM	0.688 nM	3.92 nM	>200 µM	2.344 µM	2.344 µM	
NS(=O)(=O)c1c(C(F)(F)F)ccc(-c2ccc(C3CCN(C[C@H]4CNCCO4)CC3)cc2)c1-c1nnn[nH]1 [Example 670, 4′-{1-[(2R)-morpholin-2-ylmethyl]piperidin-4-yl}-2-(1H-tetrazol-5-yl)-4-(trifluoromethyl)biphenyl-3-sulfonamide]		1.08 nM	4.11 nM	25 µM	1.563 µM	3.125 µM	3.53 nM
NS(=O)(=O)c1c(C(F)(F)F)ccc(-c2ccc(C3CCN(CC4CNC4)CC3)cc2)c1-c1nnn[nH]1 [Example 671, 4′-[1-(azetidin-3-ylmethyl)piperidin-4-yl]-2-(1H-tetrazol-5-yl)-4-(trifluoromethyl)biphenyl-3-sulfonamide]		2 nM	4.13 nM	37.5 µM	1.172 µM	1.563 µM	5.65 nM
